Test results from ChEMBL document CHEMBL1140860, “Synthesis and evaluation of dihydroartemisinin and dihydroartemisitene acetal dimers showing anticancer and antiprotozoal activity” (Bioorg Med Chem, 2009).

Columns and labels:
HL-60 [1] = test: Antitumor activity against human HL60 cells xenografted athymic nude mouse at 25 mg/kg, sc administered QD for 10 days relative to control; format: functional; settings: route subcutaneous
SNB-19 = test: Growth inhibition of human SNB19 cells after 48 hrs by sulforhodamine B assay; format: functional; settings: SNB-19, 48 h
HUVEC [2] = test: Antiangiogenic activity against HUVEC assessed as inhibition of capillary-like structure formation by NCI antiangiogenesis assay; format: functional, cell-based; settings: Homo sapiens
T47D = test: Growth inhibition of human T47D cells after 48 hrs by sulforhodamine B assay; format: functional
HL-60 [3] = test: Antitumor activity against human HL60 cells xenografted athymic nude mouse assessed as delay in tumor growth time at 25 mg/kg, sc administered QD; format: functional; settings: route subcutaneous
Plasmodium falciparum = test: Antimalarial activity after 72 hrs against chloroquine-resistant Plasmodium falciparum W2 infected erythrocytes by LDH assay; format: functional, organism-based; settings: W2, 72 h
COLO 205 = test: Growth inhibition of human COLO205 cells after 48 hrs by sulforhodamine B assay; format: functional; settings: COLO 205, 48 h
K562 = test: Growth inhibition of human K562 cells after 48 hrs by sulforhodamine B assay; format: functional; settings: K562, 48 h
HUVEC [4] = test: Antiangiogenic activity against HUVEC assessed as inhibition of VEGF-induced cell migration by NCI antiangiogenesis assay; format: functional, cell-based; settings: Homo sapiens
SK-MEL-2 = test: Growth inhibition of human SK-MEL-2 cells after 48 hrs by sulforhodamine B assay; format: functional; settings: SK-MEL-2, 48 h
NCI-H322M = test: Growth inhibition of human NCI-H322M cells after 48 hrs by sulforhodamine B assay; format: functional
UO-31 = test: Growth inhibition of human UO31 cells after 48 hrs by sulforhodamine B assay; format: functional; settings: UO-31, 48 h
Mus musculus [5] = test: Toxicity in human HL60 cells xenografted athymic nude mouse assessed as mortality at 25 mg/kg, sc administered QD for 10 days; format: organism-based, HL-60; parameters: dose 25 mg/kg, route subcutaneous; settings: in vivo, 240 h
HUVEC [6] = test: Antiangiogenic activity against HUVEC assessed as growth inhibition by NCI antiangiogenesis assay; format: functional, cell-based; settings: Homo sapiens
Mus musculus [7] = test: Toxicity in human HL60 cells xenografted athymic nude mouse assessed as body weight loss at 25 mg/kg, sc administered QD for 10 days relative to control; format: organism-based, HL-60; parameters: dose 25 mg/kg, route subcutaneous; settings: in vivo, 240 h
Mus musculus [8] = test: Toxicity in human HL60 cells xenografted athymic nude mouse assessed as mortality at 50 mg/kg, sc administered QD for 10 days; format: organism-based, HL-60; parameters: dose 50 mg/kg, route subcutaneous; settings: in vivo, 240 h
SK-OV-3 = test: Growth inhibition of human SKOV3 cells after 48 hrs by sulforhodamine B assay; format: functional; settings: SK-OV-3, 48 h
OVCAR-4 = test: Growth inhibition of human OVCAR4 cells after 48 hrs by sulforhodamine B assay; format: functional; settings: OVCAR-4, 48 h
NCI-H23 = test: Growth inhibition of human NCI-H23 cells after 48 hrs by sulforhodamine B assay; format: functional; settings: NCI-H23, 48 h
SN12C = test: Growth inhibition of human SN12C cells after 48 hrs by sulforhodamine B assay; format: functional
SF-539 = test: Growth inhibition of human SF539 cells after 48 hrs by sulforhodamine B assay; format: functional; settings: SF-539, 48 h
SNB-75 = test: Growth inhibition of human SNB75 cells after 48 hrs by sulforhodamine B assay; format: functional; settings: SNB-75, 48 h
DU-145 = test: Growth inhibition of human DU145 cells after 48 hrs by sulforhodamine B assay; format: functional; settings: DU-145, 48 h
Leishmania donovani = test: Antileishmanial activity against Leishmania donovani promastigotes after 48 hrs by alamar-blue assay; format: functional, organism-based
Mus musculus [9] = test: Toxicity in human HL60 cells xenografted athymic nude mouse assessed as body weight loss at 50 mg/kg, sc administered QD for 10 days relative to control; format: organism-based, HL-60; parameters: dose 50 mg/kg, route subcutaneous; settings: in vivo, 240 h
HL-60 [10] = test: Antitumor activity against human HL60 cells xenografted athymic nude mouse at 50 mg/kg, sc administered QD for 10 days relative to control; format: functional; settings: route subcutaneous
HL-60 [11] = test: Antitumor activity against human HL60 cells xenografted athymic nude mouse assessed as delay in tumor growth time at 50 mg/kg, sc administered QD; format: functional; settings: route subcutaneous

| Structure (SMILES) | GI50 (SNB-19) | IC50 (HUVEC [2]) | GI50 (T47D) | IC50 (Plasmodium falciparum) | GI50 (COLO 205) | GI50 (K562) | IC50 (HUVEC [4]) | GI50 (SK-MEL-2) | GI50 (NCI-H322M) | GI50 (UO-31) | IC50 (HUVEC [6]) | GI50 (SK-OV-3) | GI50 (OVCAR-4) | GI50 (NCI-H23) | GI50 (SN12C) | GI50 (SF-539) | GI50 (SNB-75) | GI50 (DU-145) | IC50 (Leishmania donovani) | IC90 (Leishmania donovani) | other results |
| --- | --- | --- | --- | --- | --- | --- | --- | --- | --- | --- | --- | --- | --- | --- | --- | --- | --- | --- | --- | --- | --- |
| C[C@H]1[C@@H](OCC(CO[C@H]2O[C@@H]3O[C@@]4(C)CC[C@H]5[C@H](C)CC[C@@H]([C@H]2C)[C@@]35OO4)OC(=O)CCC(=O)O)O[C@@H]2O[C@@]3(C)CC[C@H]4[C@H](C)CC[C@@H]1[C@@]24OO3 (stereo not given in full) | 10100 nM | 45800 nM | < 10 nM | 2100 nM | < 10 nM | 230 nM | 45300 nM | 5200 nM | 10200 nM | 355 nM | 56000 nM | 27200 nM | 58 nM | 10 nM | 16 nM | 616 nM | 22100 nM |  |  |  | T/C (HL-60 [1]): 23%; Activity (HL-60 [3]): 30 days; Activity (Mus musculus [5]): Non-toxic; Activity (Mus musculus [7]): 1%; Activity (Mus musculus [8]): Toxic |
| COCC(CO[C@H]1O[C@@H]2O[C@@]3(C)CC[C@H]4[C@H](C)CC[C@@H]([C@H]1C)[C@@]24OO3)O[C@H]1O[C@@H]2O[C@@]3(C)CC[C@H]4[C@H](C)CC[C@@H]([C@H]1C)[C@@]24OO3 (stereo not given in full) | 249 nM |  | 14 nM | 4700 nM | 11 nM | 27 nM |  | 122 nM | 5960 nM | 125 nM |  | 10900 nM | 5690 nM | 81 nM | 153 nM | 4040 nM | 22600 nM | 8340 nM |  |  |  |
| C[C@H]1[C@H](OCCO[C@H]2O[C@@H]3O[C@@]4(C)CC[C@H]5[C@H](C)CC[C@@H]([C@H]2C)[C@@]35OO4)O[C@@H]2O[C@@]3(C)CC[C@H]4[C@H](C)CC[C@@H]1[C@@]24OO3 | 8260 nM |  | 16 nM | 21900 nM | 15 nM | 20 nM |  | 212 nM | 7900 nM | 35 nM |  | 17900 nM | 41 nM | 36 nM | 55 nM | 63 nM | 366 nM | 8190 nM |  |  |  |
| C[C@H]1[C@@H](OCC(=O)CO[C@H]2O[C@@H]3O[C@@]4(C)CC[C@H]5[C@H](C)CC[C@@H]([C@H]2C)[C@@]35OO4)O[C@@H]2O[C@@]3(C)CC[C@H]4[C@H](C)CC[C@@H]1[C@@]24OO3 | 13300 nM | > 50000 nM | < 10 nM | 300 nM | < 10 nM | < 10 nM | 28500 nM | 31 nM | 8420 nM | < 10 nM | 57000 nM | 15800 nM | 69 nM | < 10 nM | < 10 nM | 10100 nM | 15 nM | 11200 nM | 10400 nM | 80300 nM |  |
| C[C@H]1[C@@H](O[C@H]2CC[C@@H](O[C@H]3O[C@@H]4O[C@@]5(C)CC[C@H]6[C@H](C)CC[C@@H]([C@H]3C)[C@@]46OO5)CC2)O[C@@H]2O[C@@]3(C)CC[C@H]4[C@H](C)CC[C@@H]1[C@@]24OO3 | 99 nM | 38800 nM | < 5 nM | 8000 nM | 7 nM | 14 nM | 3300 nM | 24 nM | 16600 nM | 18 nM | 42000 nM | 34 nM | 24 nM | 22 nM | 25 nM | 20 nM | 30 nM | 28 nM | 7700 nM | 77100 nM | T/C (HL-60 [1]): 50%; Activity (Mus musculus [9]): 17%; Activity (HL-60 [3]): 8 days; Activity (Mus musculus [5]): Non-toxic; Activity (Mus musculus [7]): 3%; Activity (Mus musculus [8]): Non-toxic; T/C (HL-60 [10]): 34%; Activity (HL-60 [11]): 36 days |
| C[C@H]1[C@@H](O[C@H]2CC[C@H](O[C@H]3O[C@@H]4O[C@@]5(C)CC[C@H]6[C@H](C)CC[C@@H]([C@H]3C)[C@@]46OO5)CC2)O[C@@H]2O[C@@]3(C)CC[C@H]4[C@H](C)CC[C@@H]1[C@@]24OO3 | 372 nM |  | < 10 nM | 13300 nM | < 10 nM | 41 nM |  | 296 nM | 672 nM | 123 nM |  | 166 nM | 53 nM | 43 nM | 97 nM | 92 nM | 202 nM | 340 nM | 7400 nM | 18500 nM |  |
| C[C@H]1[C@@H](OCC(O)CO[C@@H]2C[C@@H]3CC[C@@H](C)[C@@H]4CC[C@@]5(C)OO[C@@]34[C@H](O2)O5)O[C@@H]2O[C@@]3(C)CC[C@H]4[C@H](C)CC[C@@H]1[C@@]24OO3 (stereo not given in full) | 27600 nM | 30800 nM | 27 nM | 1200 nM | 40 nM | 60 nM | 1800 nM | 14200 nM | 62500 nM | 108 nM | 77000 nM | 21400 nM | 209 nM | 135 nM | 263 nM | 8640 nM | 8250 nM | 13800 nM | 5000 nM | 16000 nM | T/C (HL-60 [1]): 68%; Activity (Mus musculus [9]): 5%; Activity (HL-60 [3]): 16 days; Activity (Mus musculus [5]): Non-toxic; Activity (Mus musculus [7]): 2%; Activity (Mus musculus [8]): Non-toxic; T/C (HL-60 [10]): 34%; Activity (HL-60 [11]): 34 days |
| C[C@H]1[C@@H](OCCO[C@H]2O[C@@H]3O[C@@]4(C)CC[C@H]5[C@H](C)CC[C@@H]([C@H]2C)[C@@]35OO4)O[C@@H]2O[C@@]3(C)CC[C@H]4[C@H](C)CC[C@@H]1[C@@]24OO3 | > 100000 nM |  | 15 nM | 1200 nM | 490 nM | 14 nM |  | 243 nM | > 100000 nM | 469 nM |  | 798 nM | 36 nM | 1150 nM | 540 nM | 300 nM | 887 nM | 220 nM |  |  |  |
